Assay results: patent US8309584B2, “Sulfur containing pyrazole-heterocycle derivatives as cannabinoid CB1 receptor antagonists” (Green Cross Corporation, priority 2008, dated 2012)

These compounds were tested against T1, rat CB-1 receptor (Rattus norvegicus, UniProt P20272) (assay: rat cannabinoid-1 receptor (CB1R) binding affinity assay). Details: [3H]CP-55940 radioligand, SD rat brain tissue homogenate, 30° C., 60 min; read-out: IC50.
T1 construct: The tissue obtained from the brain of SD rats was homogenized; from tissue; host or cells: SD rat brain membrane homogenate
Method: The tissue obtained from the brain of SD rats was homogenized with a Dounce homogenate system in TME(50 mM Tris, 3 mM MgCl2 and 1 mM EDTA, pH 7.4) at 4° C., and the homogenate was centrifuged at 48,000 g for 30 min. at 4° C. The pellet was resuspended in 5 ml of TME and the suspension was divided into aliquots and stored at −70° C. until its use in the following assay.
The tissue concentrations were determined by Bradford protein analysis, and 148 μl of brain tissue of the required concentration was added to the plate. The plate was covered and placed in a 30° C. incubator for 60 min, and then transformed on GF/B filtermat pretreated in polyethylenimine (PEI) using a cell harvester. Each filter was washed five times and dried at 60° C. for 1 hr. Then, the degree of radioactivity retained by the filter was measured using Wallac Microbeta™ (PerkinElmer Life Sciences, Inc., Massachusetts, U.S.A.) and the activity of the compound for inhibiting CB1 receptor was determined therefrom.

T1 sequence (P20272 whole entry): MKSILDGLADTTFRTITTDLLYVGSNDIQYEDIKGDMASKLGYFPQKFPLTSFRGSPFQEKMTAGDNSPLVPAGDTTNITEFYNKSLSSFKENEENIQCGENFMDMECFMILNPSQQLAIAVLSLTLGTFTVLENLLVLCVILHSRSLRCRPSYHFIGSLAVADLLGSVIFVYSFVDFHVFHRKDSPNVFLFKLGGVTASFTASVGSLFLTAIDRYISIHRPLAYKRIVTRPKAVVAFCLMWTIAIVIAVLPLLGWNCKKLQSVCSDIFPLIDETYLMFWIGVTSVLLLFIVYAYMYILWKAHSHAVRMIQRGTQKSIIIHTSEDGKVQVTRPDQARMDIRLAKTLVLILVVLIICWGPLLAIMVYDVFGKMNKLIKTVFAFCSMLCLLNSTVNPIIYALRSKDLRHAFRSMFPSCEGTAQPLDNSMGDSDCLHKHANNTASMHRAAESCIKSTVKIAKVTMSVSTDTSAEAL

Structure (SMILES)	IC50 [nM]
CS(=O)(=O)c1c(-c2nnc(C3(C(F)(F)F)CCC3)o2)nn(-c2ccccc2Cl)c1-c1ccc(Br)cc1 [Example 94, 2-(5-(4-bromophenyl)-1-(2-chlorophenyl)-4-(methylsulfonyl)-1H-pyrazol-3-yl)-5-(1-(trifluoromethyl)cyclobutyl)-1,3,4-oxadiazole]	5.21
CSc1c(-c2nnc(C(C)(C)C)s2)nn(-c2ccc(Cl)cc2Cl)c1-c1ccc(Cl)cc1 [Example 21, 2-tert-butyl-5-(5-(4-chlorophenyl)-1-(2,4-dichlorophenyl)-4-(methylthio)-1H-pyrazol-3-yl)-1,3,4-thiadiazole]	5.19
CSc1c(-c2nnc(C3(C(F)(F)F)CCC3)o2)nn(-c2ccc(Cl)cc2Cl)c1-c1ccc(Br)cc1 [Example 11, 2-(5-(4-bromophenyl)-1-(2,4-dichlorophenyl)-4-(methylthio)-1H-pyrazol-3-yl)-5-(1-(trifluoromethyl)cyclobutyl)-1,3,4-oxadiazole]	8.44
CS(=O)(=O)c1c(-c2nnc(C3(C(F)(F)F)CC3)s2)nn(-c2ccc(Cl)cc2Cl)c1-c1ccc(Cl)cc1 [Example 101, 2-(5-(4-chlorophenyl)-1-(2,4-dichlorophenyl)-4-(methylsulfonyl)-1H-pyrazol-3-yl)-5-(1-(trifluoromethyl)cyclopropyl)-1,3,4-thiadiazole]	22
CC(C)(C)c1nnc(-c2nn(-c3ccc(Cl)cc3Cl)c(-c3ccc(Br)cc3)c2S(C)(=O)=O)o1 [Example 88, 2-(5-(4-bromophenyl)-1-(2,4-dichlorophenyl)-4-(methylsulfonyl)-1H-pyrazol-3-yl)-5-tert-butyl-1,3,4-oxadiazole]	14.2
CS(=O)(=O)c1c(-c2nnc(C3(c4ccc(Cl)cc4)CC3)s2)nn(-c2ccccc2Cl)c1-c1ccc(Br)cc1 [Example 115, 2-(5-(4-bromophenyl)-1-(2-chlorophenyl)-4-(methylsulfonyl)-1H-pyrazol-3-yl)-5-(1-(4-chlorophenyl)cyclopropyl)-1,3,4-thiadiazole]	1.4
C[S+]([O-])c1c(-c2nnc(C3(C(F)(F)F)CCC3)s2)nn(-c2ccccc2Cl)c1-c1ccc(Br)cc1 (stereo not drawn) [Example 74, 2-(5-(4-bromophenyl)-1-(2-chlorophenyl)-4-(methylsulfinyl)-1H-pyrazol-3-yl)-5-(1-(trifluoromethyl)cyclobutyl)-1,3,4-thiadiazole]	2.32
CSc1c(-c2nnc(C3(c4ccc(Cl)cc4)CC3)o2)nn(-c2ccc(Cl)cc2Cl)c1-c1ccc(Br)cc1 [Example 12, 2-(5-(4-bromophenyl)-1-(2,4-dichlorophenyl)-4-(methylthio)-1H-pyrazol-3-yl)-5-(1-(4-chlorophenyl)cyclopropyl)-1,3,4-oxadiazole]	9.23
CS(=O)(=O)c1c(-c2nnc(C3(C(F)(F)F)CC3)o2)nn(-c2ccc(Cl)cc2Cl)c1-c1ccc(Cl)cc1 [Example 81, 2-(5-(4-chlorophenyl)-1-(2,4-dichlorophenyl)-4-(methylsulfonyl)-1H-pyrazol-3-yl)-5-(1-(trifluoromethyl)cyclopropyl)-1,3,4-oxadiazole]	6.31
CS(=O)(=O)c1c(-c2nnc(C3(C(F)(F)F)CCC3)s2)nn(-c2ccc(Cl)cc2Cl)c1-c1ccc(Br)cc1 [Example 110, 2-(5-(4-bromophenyl)-1-(2,4-dichlorophenyl)-4-(methylsulfonyl)-1H-pyrazol-3-yl)-5-(1-(trifluoromethyl)cyclobutyl)-1,3,4-thiadiazole]	3.64
C[S+]([O-])c1c(-c2nnc(C3(C(F)(F)F)CC3)s2)nn(-c2ccccc2Cl)c1-c1ccc(Br)cc1 (stereo not drawn) [Example 73, 2-(5-(4-bromophenyl)-1-(2-chlorophenyl)-4-(methylsulfinyl)-1H-pyrazol-3-yl)-5-(1-(trifluoromethyl)cyclopropyl)-1,3,4-thiadiazole]	6.08
CSc1c(-c2nnc(C(C)(C)C)s2)nn(-c2ccccc2Cl)c1-c1ccc(Br)cc1 [Example 33, 2-(5-(4-bromophenyl)-1-(2-chlorophenyl)-4-(methylthio)-1H-pyrazol-3-yl)-5-tert-butyl-1,3,4-thiadiazole]	5.7
